Laboratory results from ChEMBL document CHEMBL4177562, “Synthetic ligand promotes gene expression by affecting GC sequence in promoter” (2017).
Active and inactive are the calls of the source. The calls are words filed in the database; no cut-off is given here.

Key:
HeLa [1] = test: Upregulation of GCNA mRNA expression in human HeLa cells at 0.1 uM after 24 hrs by RT-qPCR analysis; assay type: functional, cell-based
HeLa [2] = test: Upregulation of NBPF10 mRNA expression in human HeLa cells at 0.1 uM after 24 hrs by RT-qPCR analysis; assay type: functional, cell-based
HeLa [3] = test: Upregulation of OASL mRNA expression in human HeLa cells at 0.1 uM after 24 hrs by RT-qPCR analysis; assay type: functional, cell-based
HeLa [4] = test: Upregulation of IFIT2 mRNA expression in human HeLa cells at 0.1 uM after 24 hrs by RT-qPCR analysis; assay type: functional, cell-based
HeLa [5] = test: Upregulation of SULT4A1 mRNA expression in human HeLa cells at 0.1 uM after 24 hrs by RT-qPCR analysis; assay type: functional, cell-based
HeLa [6] = test: Downregulation of STK39 mRNA expression in human HeLa cells at 0.1 uM after 24 hrs by RT-qPCR analysis; assay type: functional, cell-based
HeLa [7] = test: Downregulation of CERS5 mRNA expression in human HeLa cells at 0.1 uM after 24 hrs by RT-qPCR analysis; assay type: functional, cell-based
HeLa [8] = test: Downregulation of COQ9 mRNA expression in human HeLa cells at 0.1 uM after 24 hrs by RT-qPCR analysis; assay type: functional, cell-based
HeLa [9] = test: Upregulation of nucleus-related genes (GO:0005634) in human HeLa cells measured at 12 hrs; assay type: functional
HeLa [10] = test: Upregulation of nucleoplasm-related genes (GO:0005654) in human HeLa cells measured at 12 hrs; assay type: functional
HeLa [11] = test: Upregulation of transcription/DNA-templated-related genes (GO:0006351) in human HeLa cells measured at 12 hrs; assay type: functional
HeLa [12] = test: Upregulation of cytoplasm-related genes (GO:0005737) in human HeLa cells measured at 12 hrs; assay type: functional
HeLa [13] = test: Upregulation of negative regulation of inclusion body assembly-related genes (GO:0090084) in human HeLa cells measured at 12 hrs; assay type: functional
HeLa [14] = test: Upregulation of microtubule cytoskeleton-related genes (GO:0015630) in human HeLa cells measured at 24 hrs; assay type: functional
HeLa [15] = test: Upregulation of cytoplasm-related genes (GO:0005737) in human HeLa cells measured at 24 hrs; assay type: functional
HeLa [16] = test: Upregulation of mitotic nuclear division-related genes (GO:0007067) in human HeLa cells measured at 24 hrs; assay type: functional
HeLa [17] = test: Upregulation of spindle midzone-related genes (GO:0051233) in human HeLa cells measured at 24 hrs; assay type: functional
HeLa [18] = test: Upregulation of nucleolus-related genes (GO:0005730) in human HeLa cells measured at 24 hrs; assay type: functional
HeLa [19] = test: Upregulation of spindle midzone-related genes (GO:0051233) in human HeLa cells measured at 12 to 24 hrs; assay type: functional
HeLa [20] = test: Upregulation of cytoplasm-related genes (GO:0005737) in human HeLa cells measured at 12 to 24 hrs; assay type: functional
HeLa [21] = test: Upregulation of positive regulation of cytokinesis-related genes (GO:0032467) in human HeLa cells measured at 12 to 24 hrs; assay type: functional
HeLa [22] = test: Downregulation of mitochondrial matrix-related genes (GO:0005759) in human HeLa cells measured at 12 hrs; assay type: functional
HeLa [23] = test: Downregulation of primary cilium-related genes (GO:0072372) in human HeLa cells measured at 12 hrs; assay type: functional
HeLa [24] = test: Downregulation of peroxisome-related genes (GO:0005777) in human HeLa cells measured at 12 hrs; assay type: functional
HeLa [25] = test: Downregulation of serine C-palmitoyltransferase complex-related genes (GO:0017059) in human HeLa cells measured at 12 hrs; assay type: functional
HeLa [26] = test: Downregulation of ciliary tip-related genes (GO:0097542) in human HeLa cells measured at 12 hrs; assay type: functional
HeLa [27] = test: Downregulation of proteinaceous extracellular matrix-related genes (GO:0005578) in human HeLa cells measured at 24 hrs; assay type: functional
HeLa [28] = test: Downregulation of extracellular region-related genes (GO:0005576) in human HeLa cells measured at 24 hrs; assay type: functional
HeLa [29] = test: Downregulation of extracellular exosome-related genes (GO:0070062) in human HeLa cells measured at 24 hrs; assay type: functional
HeLa [30] = test: Downregulation of cell periphery-related genes (GO:0071944) in human HeLa cells measured at 24 hrs; assay type: functional
HeLa [31] = test: Downregulation of progesterone metabolic process-related genes (GO:0042448) in human HeLa cells measured at 24 hrs; assay type: functional
HeLa [32] = test: Downregulation of oxidation-reduction process-related genes (GO:0055114) in human HeLa cells measured at 12 to 24 hrs; assay type: functional; set-up: scale not given: the % may be the effect or the level left
HeLa [33] = test: Downregulation of apical plasma membrane-related genes (GO:0016324) in human HeLa cells measured at 12 to 24 hrs; assay type: functional
HeLa [34] = test: Downregulation of skin development-related genes (GO:0043588) in human HeLa cells measured at 12 to 24 hrs; assay type: functional
[35] = Binding affinity to TGGC of 5'-Biotinylated-dCAG CGT GTG GTT TTT GGCTTT ACC ACA CGC TG-3' (unknown origin) after 30 secs by SPR analysis
[36] = Binding affinity to CGGT of 5'-Biotinylated-dCAG CGT GTG GTT TTC GGTTTT ACC ACA CGC TG-3' (unknown origin) after 30 secs by SPR analysis
[37] = Binding affinity to GGGC of 5'-Biotinylated-dCAG CGT GTG GTT TTG GGCTTT ACC ACA CGC TG-3' (unknown origin) after 30 secs by SPR analysis
[38] = Binding affinity to GCGG of 5'-Biotinylated-dCAG CGT GTG GTT TTG CGGTTT ACC ACA CGC TG-3' (unknown origin) after 30 secs by SPR analysis
[39] = Binding affinity to GGGG of 5'-Biotinylated-dCAG CGT GTG GTT TTG GGGTTT ACC ACA CGC TG-3' (unknown origin) after 30 secs by SPR analysis
[40] = Binding affinity to CGGG of 5'-Biotinylated-dCAG CGT GTG GTT TTC GGGTTT ACC ACA CGC TG-3' (unknown origin) after 30 secs by SPR analysis
[41] = Binding affinity to TCTT of 5'-Biotinylated-dCAG CGT GTG GTT TTT CTTTTT ACC ACA CGC TG-3' (unknown origin) at 1.25 to 20 nM after 30 secs by SPR analysis
[42] = Binding affinity to TTTT of 5'-Biotinylated-dCAG CGT GTG GTT TTT TTTTTT ACC ACA CGC TG-3' (unknown origin) at 1.25 to 20 nM after 30 secs by SPR analysis
[43] = Binding affinity to AAAA of 5'-Biotinylated-dCAG CGT GTG GTT TTA AAATTT ACC ACA CGC TG-3' (unknown origin) at 1.25 to 20 nM after 30 secs by SPR analysis
[44] = Binding affinity to TTTA of 5'-Biotinylated-dCAG CGT GTG GTT TTT TTATTT ACC ACA CGC TG-3' (unknown origin) at 1.25 to 20 nM after 30 secs by SPR analysis
[45] = Binding affinity to CACA of 5'-Biotinylated-dCAG CGT GTG GTT TTC ACATTT ACC ACA CGC TG-3' (unknown origin) at 1.25 to 20 nM after 30 secs by SPR analysis
[46] = Binding affinity to ATTT of 5'-Biotinylated-dCAG CGT GTG GTT TTA TTTTTT ACC ACA CGC TG-3' (unknown origin) at 1.25 to 20 nM after 30 secs by SPR analysis
[47] = Binding affinity to GCGG of 5'-Biotinylated-dCAG CGT GTG GTT TTG C(Me)GGTTT ACC ACA CGC TG-3' (unknown origin) at 1.25 to 20 nM after 30 secs by SPR analysis

Compound: Cc1ccc2ccc(NC(=O)OCCCN(CCCCCCCCN(CCCOC(=O)Nc3ccc4ccc(C)nc4n3)CCCOC(=O)Nc3ccc4ccc(C)nc4n3)CCCOC(=O)Nc3ccc4ccc(C)nc4n3)nc2n1
- Activity (HeLa [1]): Active
- Activity (HeLa [2]): Active
- Activity (HeLa [3]): Active
- Activity (HeLa [4]): Active
- Activity (HeLa [5]): Active
- Activity (HeLa [6]): Active
- Activity (HeLa [7]): Active
- Activity (HeLa [8]): Active
- Activity (HeLa [9]): 43.78%
- Activity (HeLa [10]): 26.27%
- Activity (HeLa [11]): 20.28%
- Activity (HeLa [12]): 34.56%
- Activity (HeLa [13]): 2.3%
- Activity (HeLa [14]): 4.62%
- Activity (HeLa [15]): 33.85%
- Activity (HeLa [16]): 7.69%
- Activity (HeLa [17]): 3.08%
- Activity (HeLa [18]): 9.23%
- Activity (HeLa [19]): 5.56%
- Activity (HeLa [20]): 33.33%
- Activity (HeLa [21]): 5.55%
- Activity (HeLa [22]): 3.74%
- Activity (HeLa [23]): 2.14%
- Activity (HeLa [24]): 2.14%
- Activity (HeLa [25]): 1.07%
- Activity (HeLa [26]): 1.6%
- Activity (HeLa [27]): 12.24%
- Activity (HeLa [28]): 22.45%
- Activity (HeLa [29]): 24.49%
- Activity (HeLa [30]): 4.08%
- Activity (HeLa [31]): 4.08%
- Activity (HeLa [32]): 16.67%
- Activity (HeLa [33]): 10%
- Activity (HeLa [34]): 6.67%
- Activity [35]: Dose-dependent effect
- Activity [36]: Dose-dependent effect
- Activity [37]: Dose-dependent effect
- Activity [38]: Dose-dependent effect
- Activity [39]: Dose-dependent effect
- Activity [40]: Dose-dependent effect
- Activity [41]: inactive
- Activity [42]: inactive
- Activity [43]: inactive
- Activity [44]: inactive
- Activity [45]: inactive
- Activity [46]: inactive
- Activity [47]: inactive
